This is an account of results in ChEMBL document CHEMBL4480391, “Discovery and synthesis of sulfur-containing 6-substituted 5,8-dimethoxy-1,4-naphthoquinone oxime derivatives as new and potential anti-MDR cancer agents” (Eur J Med Chem, 2019).

Broadly, the IC50 is the concentration at which inhibition is half-maximal. Read a low IC50 as greater potency.

The nature of data set [1]: Cytotoxicity against human […] cells after 72 hrs by MTT assay. The format is functional, cell-based. (Formazan colour is commonly taken as a measure of viable cells.)
Another data set deals with MGC-803. In words: Cytotoxicity against human MGC803 cells after 72 hrs by MTT assay. Format: functional, cell-based. The settings on record: MGC-803, 72 h.
The subject of a further data set is HCT-15. Description: Cytotoxicity against human HCT15 cells after 72 hrs by MTT assay. Particulars: HCT-15, 72 h. Format: functional, cell-based.
Data set [2] in a line: Selectivity ratio of IC50 for human A549 cells to IC50 for human A549/TAX cells. Format: functional.
The test system of another data set is MCF7. Description: Cytotoxicity against human MCF7 cells after 72 hrs by MTT assay. Format: functional, cell-based. The settings on record: MCF7, 72 h.
In the next data set the test system is A549/TR. Description: Cytotoxicity against human A549/TAX cells after 72 hrs by MTT assay. The format is functional, cell-based.
Another data set deals with NCI/ADR-RES. In words: Cytotoxicity against human MCF7/ADR cells after 72 hrs by MTT assay. The format is functional, cell-based.
Another data set deals with Bel7402/5-FU. In words: Cytotoxicity against human Bel7402/5-FU cells after 72 hrs by MTT assay. The format is functional, cell-based.
The next data set deals with K562. Description: Cytotoxicity against human K562 cells after 72 hrs by MTT assay. The format is functional, cell-based. The settings on record: K562, 72 h.
The subject of the next data set is A549. In words: Cytotoxicity against human A549 cells after 72 hrs by MTT assay. Particulars: A549, 72 h. Format: functional, cell-based.
Data set [3] is described as follows: Selectivity index, ratio of IC50 for human HSF cells to IC50 for human HCT15 cells. The format is toxicity. Particulars: HSF cells versus HCT15 cells, read-out: Ratio IC50.
Data set [4] can be described thus: Selectivity ratio of IC50 for human MCF7 cells to IC50 for human MCF7/ADR cells. Format: functional.
Data set [5] is described as follows: Selectivity ratio of IC50 for human […] cells to IC50 for human Bel7402/5-FU cells. The format is functional.
A short description of data set [6]: Cytotoxicity against human HSF cells after 72 hrs by MTT assay. Format: cell-based.

With `CCCCCCCCC(SC(=O)c1ccc(C)cc1)c1cc(OC)c2c(c1OC)/C(=N/O)C=C/C2=N\O` (stereo not drawn), the IC50 in data set [1] came out at 930 nM; in the data set with MGC-803, 940 nM; with HCT-15, 530 nM; with MCF7 it was 18800 nM; in the data set with A549/TR, 1820 nM; with NCI/ADR-RES it was 3980 nM. Further, the half-inhibitory concentration (IC50) is 760 nM with Bel7402/5-FU, 970 nM in the data set on K562, 13900 nM in the data set with A549 and > 50000 nM in data set [6]. Also, the “Ratio IC50” value in [2] was found to be 7.62; in [4], 4.74; in data set [5], 1.22. In [3], the selectivity ratio was > 94.3.

For `CCCCCCCCC(SC(=O)c1cc(OC)c(OC)c(OC)c1)c1cc(OC)c2c(c1OC)/C(=N/O)C=C/C2=N\O` (stereo not drawn), the IC50 in data set [1] amounted to 560 nM; in the data set on MGC-803, 910 nM; in the data set with HCT-15, 500 nM; in the data set with MCF7, 14800 nM; in the data set with A549/TR it was 810 nM; with NCI/ADR-RES, 2470 nM. For the same compound, the IC50 was 310 nM in the data set with Bel7402/5-FU, 680 nM with K562, 9280 nM in the data set on A549 and > 50000 nM in data set [6]. Further, the “Ratio IC50” value is recorded as 11.5 in data set [2], 6.01 in data set [4] and 1.81 in [5]. Besides, the selectivity ratio in data set [3] is > 100.

`CCCCCCCCC(SC(=O)c1ccc(OC)c(OC)c1)c1cc(OC)c2c(c1OC)/C(=N/O)C=C/C2=N\O` (stereo not drawn): the IC50 in data set [1] is 740 nM; with MGC-803, 950 nM; in the data set with HCT-15 it was 460 nM; in the data set with MCF7 it was 13100 nM; with A549/TR, 960 nM; in the data set with NCI/ADR-RES, 2630 nM. Besides, the IC50 in the data set with Bel7402/5-FU is 570 nM; with K562 it was 750 nM; with A549, 10400 nM; in data set [6], > 50000 nM. Further, the “Ratio IC50” value in data set [2] was found to be 10.9; in [4], 4.97; in data set [5] it was 1.3. Moreover, the selectivity ratio in data set [3] is > 109.

With `CCCCCCCCCC(SC(=O)c1cc(OC)c(OC)c(OC)c1)c1cc(OC)c2c(c1OC)/C(=N/O)C=C/C2=N\O` (stereo not drawn), the IC50 was 1340 nM in [1]; 1250 nM with MGC-803; 820 nM in the data set on HCT-15; 19300 nM in the data set with MCF7; 1010 nM with A549/TR; 5480 nM in the data set with NCI/ADR-RES. The IC50 in the data set on Bel7402/5-FU was 1120 nM; in the data set on K562, 790 nM; in the data set with A549 it was 16100 nM; in [6] it was > 50000 nM. For the same compound, the “Ratio IC50” value in data set [2] amounted to 15.9; in [4], 3.51; in [5], 1.2. Besides, the selectivity ratio in data set [3] is > 61.

In the case of `CCCCCCCC(SC(=O)c1cc(OC)c(OC)c(OC)c1)c1cc(OC)c2c(c1OC)/C(=N/O)C=C/C2=N\O` (stereo not drawn), the IC50 was determined as 2960 nM in data set [1]; 1210 nM in the data set on MGC-803; 980 nM with HCT-15; 20700 nM in the data set with MCF7; 2250 nM in the data set with A549/TR; 7880 nM in the data set with NCI/ADR-RES. The IC50 is 1560 nM with Bel7402/5-FU, 850 nM in the data set on K562, 17900 nM in the data set with A549 and > 50000 nM in data set [6]. The entries for the “Ratio IC50” value in data set [2], in [4] and in [5] were 7.96, 2.7 and 1.9, respectively. Also, the selectivity ratio in data set [3] is > 51.

With `CCCCCCCC(SCCC(C)C)c1cc(OC)c2c(c1OC)/C(=N/O)C=C/C2=N\O` (stereo not drawn), the IC50 amounted to 4470 nM in [1]; 1350 nM in the data set with MGC-803; 820 nM in the data set with HCT-15; 38600 nM in the data set on MCF7; 4520 nM in the data set on A549/TR; 18500 nM in the data set on NCI/ADR-RES. Moreover, the IC50 in the data set with Bel7402/5-FU was 2920 nM; with K562 it was 1000 nM; with A549 it was 24300 nM; in data set [6], > 50000 nM. Further, the “Ratio IC50” value is listed as 5.38 in data set [2], 2.09 in [4] and 1.53 in data set [5]. Further, in [3], the selectivity ratio is > 61.

With `CCCCCCCCC(SCCC(C)C)c1cc(OC)c2c(c1OC)/C(=N/O)C=C/C2=N\O` (stereo not drawn), the IC50 in [1] was 2310 nM; in the data set on MGC-803 it was 1090 nM; with HCT-15, 540 nM; in the data set with MCF7, 33600 nM; in the data set with A549/TR it was 1180 nM; in the data set on NCI/ADR-RES, 14000 nM. Further, the IC50 was 730 nM in the data set with Bel7402/5-FU, 760 nM in the data set on K562, 18900 nM in the data set with A549 and > 50000 nM in [6]. Further, the “Ratio IC50” value came out at 16 in data set [2], 2.41 in data set [4] and 3.16 in data set [5]. Moreover, in data set [3], the selectivity ratio was > 92.6.
